Results on two compounds are retold here after PMC4623321 (Clinical genitourinary cancer, 2013).

Marks after values point to notes of the source that are not given here.

A short description of data set [1]: Pharmacokinetic assessments in patient plasma. Type of data set: in vivo, human.
Data set [2] deals with S6 ribosomal protein phosphorylation (Ser235/236) in PBMCs. Nature of the data set: PBMC phospho/total S6RP analysis. Type of data set: in vivo, human. To be noted: PBMCs of patients, baseline to 1 month of treatment (with vatalanib).
Data set [3] relates to patients with advanced solid tumors. To be noted: oral.
Another data set concerns solid tumors. The conditions noted are these: cited from earlier work.
The mark [4] stands for this setting: everolimus with vatalanib, day 29, mean ± SD.
The mark [5] stands for this setting: vatalanib after everolimus started, day 29, mean ± SD.
Setting [6] is: vatalanib alone, day 14, mean ± SD.

As for `CO[C@H]1C[C@@H]2CC[C@@H](C)[C@@](O)(O2)C(=O)C(=O)N2CCCC[C@H]2C(=O)O[C@H]([C@H](C)C[C@@H]2CC[C@@H](OCCO)[C@H](OC)C2)CC(=O)[C@H](C)/C=C(\C)[C@@H](O)[C@@H](OC)C(=O)[C@H](C)C[C@H](C)/C=C/C=C/C=C/1C` [Everolimus], in data set [1] (setting [4]), the CLss/F was 14.3 ± 3.7 L/h, the Cssavg is on record as 15.7 ± 4.9 ng/mL and the Cssmax worked out at 48.5 ± 14.8 ng/mL. For the same compound, the “Time of peak of mean plasma concentration” value in data set [1] (everolimus, cycle 1 day 29, mean concentration-time curve (Fig. 3B)) was found to be 2 h. Also, the Vd/F in data set [1] (human, plasma, oral) stood at 216 ± 74 L. The same compound showed an area under the curve (AUC) in data set [1] (human, plasma, oral, everolimus with vatalanib, day 29, 24-hour dosing interval, mean ± SD) of 377 ± 117 ng·h/mL. The half-life in data set [1] (human, plasma, oral, t1/2, everolimus with vatalanib, day 29, mean ± SD) is 14 ± 2.5 h. Further, the Tmax in data set [1] (human, plasma, oral, tmax, everolimus with vatalanib, day 29, median (range)) was determined as 1.31 h. The “Mean change in phospho/total ratio of S6RP” value in data set [2] was “no mean change”. For the same compound, the “Maximum tolerated dose (MTD) of everolimus in the combination” value in data set [3] (combined with vatalanib 1000 mg daily) amounted to 5 mg daily.

Take `Clc1ccc(Nc2nnc(Cc3ccncc3)c3ccccc23)cc1` [Vatalanib]: the “Effect of adding everolimus on systemic exposure of vatalanib (AUC)” value in data set [1] (day 14 vs day 29) was “not significantly affected”. The “Effect of everolimus on the PK parameters of vatalanib (maximum or steady-state plasma concentrations)” value in data set [1] (day 14 vs day 29) was “no substantial effect”. In data set [1] (human, plasma, oral), this compound registered a Vd/F of 488 ± 481 L. Also, the exposure (AUC) in data set [1] (human, plasma, oral, vatalanib after everolimus started, day 29, 24-hour dosing interval, mean ± SD) is 21600 ng·h/mL; in data set [1] (human, plasma, oral, vatalanib alone, day 14, 24-hour dosing interval, mean ± SD) it was 26400 ng·h/mL. Besides, the half-life is 5.7 h in data set [1] (human, plasma, oral, t1/2, vatalanib after everolimus started, day 29, mean ± SD) and 6.3 h in data set [1] (human, plasma, oral, t1/2, vatalanib alone, day 14, steady state, plasma, mean ± SD). Moreover, the Tmax in data set [1] (human, plasma, oral, tmax, vatalanib after everolimus started, day 29, median (range)) is 2 h; in data set [1] (human, plasma, oral, tmax, vatalanib alone, day 14, median (range)) it was 2 h; in data set [1] (vatalanib after everolimus started, day 29, median (range)) it was 2.08 (1.00-4.08) ^a h. For the same compound, the values for the Cssavg in data set [1] (setting [5]) and in data set [1] (setting [6]) were 901 ± 403 ng/mL and 1099 ± 551 ng/mL, respectively. Further, the Cssmax was 3963 ± 1861 ng/mL in data set [1] (setting [5]) and 4825 ± 2910 ng/mL in data set [1] (setting [6]). Further, the t1/2 was 5.71 ± 3.06 h in data set [1] (setting [5]) and 6.32 ± 4.46 h in data set [1] (vatalanib alone, day 14, steady state, plasma, mean ± SD). For the same compound, the “Maximum tolerated dose (MTD) of vatalanib in the combination” value in data set [3] (combined with everolimus 5 mg daily) is given as 1000 mg daily. Also, the “Daily dose with radiographic evidence of a decrease in tumor blood flow” value with solid tumors (several clinical trials) was ≥ 1000 mg. Moreover, the Tolerable dosing with solid tumors (single agent, clinical trials) is on record as ≤ 2000 mg daily.

What is called Vd/F is the apparent distribution volume after extravascular dosing. Broadly, the AUC is the area under the concentration-time curve, a measure of exposure. Lower therefore signals low exposure. Usually half-life stands for how long it takes for the measured level to halve. A lower half-life goes with fast loss.
